What was measured:
[1] = system: Escherichia coli MDR clinical isolate (stool); assay: Antibiotic sensitivity, Kirby Bauer; conditions: for resistance of isolate: gram-negative isolate E. coli
[2] = system: E. coil; assay: Zone of inhibition, agar well; conditions: E.coli; antibiotic amount (5-200 mcg)
[3] = system: MRSA 1; assay: Zone of inhibition, agar well; conditions: antibiotic amount (1-200 mcg)
[4] = system: MRSA 2; assay: Zone of inhibition, agar well; conditions: antibiotic amount (1-200 mcg)
[5] = system: S. aureus ATCC 6538 P; assay: Zone of inhibition, agar well; conditions: antibiotic amount (1-200 mcg)
[6] = system: S.typhi; assay: Zone of inhibition, agar well; conditions: antibiotic amount (5-200 mcg)
[7] = system: Pseudomonas aeruginosa MDR clinical isolate (sputum); assay: Antibiotic sensitivity, Kirby Bauer; conditions: gram-negative isolate Pseudomonas

With `NC[C@H]1O[C@H](O[C@H]2[C@H](O)[C@@H](O[C@H]3O[C@H](CO)[C@@H](O)[C@H](N)[C@H]3O)[C@H](N)C[C@@H]2N)[C@H](O)[C@@H](O)[C@@H]1O` [kanamycin] the “Zone size (mm)” value ([1]; E.c, Kirby-Bauer antibiotic disc) was 14 mm.

`CCn1cc(C(=O)O)c(=O)c2cc(F)c(N3CCN(C)CC3)cc21` [Peflofloxacin] was tested, and the “zone of inhibition, antibiotics” value [2] was “Clear”, the “zone of inhibition, antibiotics” value [3] was 11 mm and the “zone of inhibition, antibiotics” value [4] was 13 mm. The “zone of inhibition, antibiotics” value [5] was 30 mm and the “zone of inhibition, antibiotics” value [6] was “clear”.

With `Cc1onc(-c2ccccc2Cl)c1C(=O)N[C@@H]1C(=O)N2[C@@H]1SC(C)(C)[C@@H]2C(=O)O` [Cloxacillin] the “zone of inhibition, antibiotics” value [3] was “Clear”, the “zone of inhibition, antibiotics” value [4] was 13 mm and the “zone of inhibition, antibiotics” value [5] was “Clear”.

For `O=C(O)c1cn(C2CC2)c2cc(N3CCNCC3)c(F)cc2c1=O` [Ciprofloxacin], the “zone of inhibition, antibiotics” value [2] was 29 mm, the “zone of inhibition, antibiotics” value [3] was 14 mm and the “zone of inhibition, antibiotics” value [4] was 14 mm. The “zone of inhibition, antibiotics” value [5] was 28 mm and the “zone of inhibition, antibiotics” value [6] was 25 mm.

With `CCN1CCN(C(=O)N[C@@H](C(=O)N[C@@H]2C(=O)N3[C@@H]2SC(C)(C)[C@@H]3C(=O)O)c2ccccc2)C(=O)C1=O` [Piperacillin] the “zone of inhibition, antibiotics” value [2] was 22 mm and the “zone of inhibition, antibiotics” value [6] was 16 mm.

For `CC1(C)S[C@@H]2[C@H](NC(=O)[C@H](N)c3ccccc3)C(=O)N2[C@H]1C(=O)O` [Ampicillin], the “zone of inhibition, antibiotics” value [2] was 23 mm, the “zone of inhibition, antibiotics” value [3] was 15 mm and the “zone of inhibition, antibiotics” value [4] was 18 mm. For the same compound, the “zone of inhibition, antibiotics” value [5] was “Clear”, the “zone of inhibition, antibiotics” value [6] was 20 mm and the resistance of isolate [1] was “resistance”. The resistance of isolate [7] was “resistance”.

In the case of `CO/N=C(\C(=O)N[C@@H]1C(=O)N2C(C(=O)O)=C(COC(C)=O)CS[C@H]12)c1csc(N)n1` [Cefotaxime], the “zone of inhibition, antibiotics” value [2] is reported as 21 mm, the “zone of inhibition, antibiotics” value [4] is reported as “-Clear” and the “zone of inhibition, antibiotics” value [5] is reported as 26 mm. The “zone of inhibition, antibiotics” value [6] was 22 mm.

In the case of `CCC[C@@H]1C[C@@H](C(=O)N[C@@H]([C@H]2O[C@H](SC)[C@H](O)[C@@H](O)[C@H]2O)[C@@H](C)O)N(C)C1` [Lincomycin], the “zone of inhibition, antibiotics” value [3] is reported as “Clear”, the “zone of inhibition, antibiotics” value [4] is reported as “Clear” and the “zone of inhibition, antibiotics” value [5] is reported as 1Clear.

In the case of `CCn1cc(C(=O)O)c(=O)c2ccc(C)nc21` [nalidixic acid], the resistance of isolate [1] is reported as “resistance” and the resistance of isolate [7] is reported as “resistance”.

Source: patent publication US20110262556A1, “SILVER/WATER, SILVER GELS AND SILVER-BASED COMPOSITIONS; AND METHODS FOR MAKING AND USING THE SAME” (AMERICAN SILVER, LLC, priority 2005, published 2011)
